Data taken from patent US20110224297A1, “Methods of administering prostratin and structural analogs thereof” (priority 2008, published 2011).
Where two headings read alike, the source gives them in different places.

Experiments:
[1] = Stability of prostratin in mouse plasma; assay type: in vitro ADME; details: 24 hr incubation at 37° C.
Protocol: Prostratin is stable in plasma and buffer as well as in the stability formulation (see below) developed for in vivo studies in mice. Stability tests for prostratin in mouse and monkey plasma were done using two concentration (1 and 10 mg/ml) and two temperatures (Room Temperature (RT) and 37° C.). The only loss of drug occurred in mouse plasma after 24 hr incubation at 37° C. This represented only 14% decrease in parent drug peak area over this time frame. Prostratin is stable in PBS (phosphate buffer saline) at pH 2 and pH 7.

[2] = In vitro metabolism in monkey liver microsomes; assay type: in vitro ADME
From the text: In vitro metabolism of prostratin was investigated using mouse, rat, monkey, and human liver microsomes (Gentest). […] Attempts to identify the metabolite by LC/MS/MS were unsuccessful due to the low amounts present in the reaction mixtures (FIG. 1).

[3] = tested on: Salmonella typhimurium tester strains TA98, TA100, TA1535, and TA1537; test: Salmonella/mammalian-microsome reverse mutation assay with confirmatory assay; assay type: cell-based; details: 100 to 5000 μg per plate; presence or absence of S9
From the text: The objective of this study was to evaluate the test article, prostratin, for the ability to induce reverse mutations either in the presence or absence of mammalian microsomal enzymes at 1) the histidine locus in the genome of several strains of Salmonella typhimurium and at 2) the tryptophan locus of Escherichia coli tester strain WP2uvrA.
The doses tested in the mutagenicity assay were selected based on the results of a dose range finding study using tester strains TA100 and WP2uvrA and ten doses of test article ranging from 6.67 to 5000 μg per plate, one plate per dose, both in the presence and absence of S9 mix.
The tester strains used in the mutagenicity assay were Salmonella typhimurium tester strains TA98, TA100, TA1535, and TA1537 and Escherichia coli tester strain WP2uvrA. The assay was conducted with five doses of test article in both the presence and absence of S9 mix along with concurrent vehicle and positive controls using three plates per dose. The doses tested were 100, 333, 1000, 3330, and 5000 μg per plate in both the presence and absence of S9 mix. The results of the initial mutagenicity assay were confirmed in an independent experiment.

[4] = tested on: cultured human peripheral blood lymphocytes; test: Chromosomal aberrations in cultured human peripheral blood lymphocytes; assay type: cell-based
Protocol: The objective of this in vitro assay was to evaluate the ability of prostratin to cause structural chromosomal aberrations in cultured human lymphocytes with and without an exogenous metabolic activation system.
Dimethylsulfoxide (DMSO) was the vehicle of choice for this study. […] The stock solution and its dilutions were dosed using a dosing volume of 1% (10 μL/ml) and the vehicle control cultures were treated with 10.0 μL/ml of DMSO.
In the initial chromosomal aberrations assay, the treatment period was for 3 hours with and without metabolic activation, and cultures were harvested ˜22 hours from the initiation of treatment. Replicate cultures of human whole blood lymphocytes were incubated with test article at 23.7, 33.9, 48.4, 69.2, 98.9, 141, 202, 288, 412, 588, 840, 1200, 1720, 2450, and 3500 μg/ml with and without metabolic activation. Cultures treated with concentrations of 412, 588, 840, and 1200 μg/ml without metabolic activation and 588, 840, 1200, and 1720 μg/ml with metabolic activation were analyzed for chromosomal aberrations.
In the confirmatory chromosomal aberrations assay, the treatment period was ˜22 hours without metabolic activation and 3 hours with metabolic activation, and cultures were harvested ˜22 hours from the initiation of treatment. Replicate cultures of human whole blood lymphocytes were incubated with test article at 15.6, 31.3, 62.5, 125, 188, 250, 375, 500, 750, 1000, 1400, and 1700 μg/ml without metabolic activation and 250, 500, 1000, 1400, 1700, 2000, and 2500 μg/ml with metabolic activation. Cultures treated with concentrations of 125, 250, 500, and 1400 μg/ml without metabolic activation and 1400, 1700, 2000, and 2500 μg/ml with metabolic activation were analyzed for chromosomal aberrations.
For all treatment conditions, the vehicle and negative control cultures were within the expected range and the historical control data and the positive control cultures induced significant increases in chromosomal aberrations.

[5] = Pharmacokinetics following intravenous and oral administration to rats; assay type: in vivo; details: for Vd / half-life / bioavailability: male; for bioavailability: three male rats
Protocol: In order to find out the best route of administration and the correct concentration of prostratin, the drug was administered as an intravenous infusion over three hours as well as a single and twice oral administration to 3 groups of rats. The goal of this experiment was to find out if greater amounts of prostratin can be administered over a longer period of time. This would enable obtaining median higher concentrations in the blood for a longer period of time that would be close to effective concentration found in in vitro studies.

[6] = all three females, 1.2-mg/kg oral dose, males 2.4 mg/kg
[7] = female Animal No. C24047, 0.8 mg/kg i.v. infusion
[8] = female Animal No. C24048, 0.8 mg/kg i.v. infusion
[9] = female Animal No. C24049, 0.8 mg/kg i.v. infusion
[10] = female Animal No. C24050, 1.2-mg/kg oral dose, males 2.4 mg/kg
[11] = female Animal No. C24055, Group 3

CC(=O)O[C@@]12C[C@@H](C)[C@@]3(O)[C@@H](C=C(CO)C[C@]4(O)C(=O)C(C)=C[C@@H]34)[C@@H]1C2(C)C [prostratin, 12-deoxyphorbol 13-acetate]
decrease in parent drug peak area [1]: 14% | metabolism (time-dependent loss of parent compound) [2]: greatest | mean number of revertants per plate [3]: did not cause a positive increase | cells with chromosomal aberrations, polyploidy, or endoreduplication ([4]; confirmatory assay, ~22 hours without and 3 hours with metabolic activation, 125-1400 μg/ml without, 1400-2500 μg/ml with): No significant increase | cells with chromosomal aberrations, polyploidy, or endoreduplication ([4]; initial assay, 3 hours with and without metabolic activation, 412-1200 μg/ml without, 588-1720 μg/ml with): No significant increase | induction of chromosomal aberrations, overall ([4]; without and with an exogenous metabolic activation system): negative | mean AUC0-1.5 relative to mean value for the males [5, 6]: ~5.5 fold | mean Cmax relative to mean value for the males [5, 6]: approximately 6.2 fold | AUC0-2 relative to mean AUC0-2 for the males [5, 7]: approximately 4.2 fold | plasma concentration at approximately 2 hours relative to mean male Cmax [5, 7]: approximately 3.8 fold | AUC0-2 relative to mean AUC0-2 for the males [5, 8]: approximately 1.4 fold | plasma concentration at approximately 2 hours relative to mean male Cmax [5, 8]: approximately 1.6 fold | AUC0-3.083 relative to mean value for the males [5, 9]: ~2.6 fold | Cmax relative to mean value for the males [5, 9]: approximately 3.7 fold | AUC0-1.5 relative to mean value for the males [5, 10]: ~8.2 fold | Cmax relative to mean value for the males [5, 10]: approximately 8.9 fold | AUC0-4 relative to mean value for the males ([5]; female Animal No. C24052, 1.2-mg/kg oral dose, males 2.4 mg/kg): approximately 9.6 fold | Cmax relative to mean value for the three males ([5]; female Animal No. C24055, 1.8 mg/kg then 1.0 mg/kg oral, Group 3): approximately 6.0 fold | AUC0-1.5 relative to mean value for the three males [5, 11]: ~5.9 fold | AUC0-4 relative to mean value for the three males [5, 11]: ~8.2 fold | AUC0-10 relative to mean AUC0-10 for the males ([5]; last female of Group 2, 1.2-mg/kg oral dose, males 2.4 mg/kg): approximately 6.1 fold | increase in exposure (mean AUC0-10) of 1.8-mg/kg BID versus single 2.4-mg/kg oral dose ([5]; male rats, Groups 3 and 2): approximately 1.5 fold | Vd ([5]; rat, plasma, iv, 0.8 mg/kg, male rats, 0.8 mg/kg i.v. infusion, read-out: mean Vss): 2.22 L/kg | Vd ([5]; rat, plasma, iv, 0.8 mg/kg, male rats, 0.8 mg/kg i.v. infusion, read-out: mean Vz): 6.41 L/kg | half-life ([5]; rat, plasma, iv, 0.8 mg/kg, male rats, after 3-hour intravenous infusion 0.8 mg/kg, read-out: mean t1/2 (converted)): 2.49 h | half-life ([5]; rat, plasma, po, 1.8 mg/kg, male Animal No. C24046, Group 3, 1.8 mg/kg BID oral, read-out: t1/2 (converted)): 7.47 h | half-life ([5]; rat, plasma, po, 1.8 mg/kg, male rats, 1.8 mg/kg BID oral, after the second dose, read-out: mean t1/2 (converted)): 4.07 h | half-life ([5]; rat, plasma, po, 2.4 mg/kg, male rats, single 2.4-mg/kg oral dose, read-out: mean t1/2 (converted)): 2.08 h | bioavailability ([5]; rat, plasma, po, 2.4 mg/kg, single 2.4-mg/kg oral dose, read-out: Bioavailability (% F), mean): 13.3% | bioavailability ([5]; rat, plasma, po, 2.4 mg/kg, single 2.4-mg/kg oral dose, read-out: Bioavailability (% F), range): 7.7 to 23.1% | clearance ([5]; rat, plasma, iv, male rats, 0.8 mg/kg i.v. infusion, read-out: mean CL (converted)): 34.2 mL/min/kg | concentration at 4 h ([5]; rat, plasma, male rats, 1.8 mg/kg oral, Group 3, read-out: mean plasma concentration just prior to the second oral dose at 4 hours): 17.9 ng/mL | Cmax ([5]; rat, plasma, male rats, 0.8-mg/kg intravenous infusion over 3 hours): 159 ng/mL | Cmax ([5]; rat, plasma, male rats, 1.8-mg/kg oral doses BID, following the second dose): 55.1 ng/mL | Tmax ([5]; rat, plasma, male rats, 1.8-mg/kg oral doses BID, read-out: time at which Cmax was observed): 0.25 to 0.5 h | Cmax ([5]; rat, plasma, male rats, single 2.4-mg/kg oral dose): 49.7 ng/mL | concentration at 4 h ([5]; rat, plasma, male rats, single 2.4-mg/kg oral dose, Group 2, read-out: mean plasma concentration at 4 hours postdose): 11.5 ng/mL
